Bridge positions count the residues as written; N and C are the ends. Peptide text beside a SMILES is read from it.
How the values were obtained:
Human plasma kallikrein = target: T1, Human plasma kallikrein (Homo sapiens, UniProt P03952); experiment: Plasma kallikrein inhibition assay; type: biochemical
T1 construct: Human β-FXIIa was obtained from Molecular Innovations, together with human FXa, human FXIa, human α-thrombin, and human plasma kallikrein; purchased Molecular Innovations; host or cells: purified from human plasma
T1 sequence (P03952 391-638 limits assumed): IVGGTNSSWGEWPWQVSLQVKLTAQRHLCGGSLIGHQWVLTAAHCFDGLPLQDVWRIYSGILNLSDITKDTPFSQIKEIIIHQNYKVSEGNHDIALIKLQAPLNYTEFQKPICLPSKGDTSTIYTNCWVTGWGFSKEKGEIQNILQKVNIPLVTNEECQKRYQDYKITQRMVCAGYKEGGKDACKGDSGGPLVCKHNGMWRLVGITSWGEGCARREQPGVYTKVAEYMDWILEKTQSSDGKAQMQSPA
T1 sequence (P03952 20-390 partner limits assumed): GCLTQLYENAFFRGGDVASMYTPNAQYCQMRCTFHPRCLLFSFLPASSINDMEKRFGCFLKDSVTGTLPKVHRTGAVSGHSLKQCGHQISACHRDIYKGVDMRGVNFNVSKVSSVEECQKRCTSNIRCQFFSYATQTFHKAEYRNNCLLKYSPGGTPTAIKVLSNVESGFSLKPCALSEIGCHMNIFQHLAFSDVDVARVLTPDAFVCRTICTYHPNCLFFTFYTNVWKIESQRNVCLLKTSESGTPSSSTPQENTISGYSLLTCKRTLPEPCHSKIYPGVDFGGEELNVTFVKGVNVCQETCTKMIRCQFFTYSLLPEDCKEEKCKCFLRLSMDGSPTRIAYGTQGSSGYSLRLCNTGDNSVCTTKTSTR
Description: (§1) The activity of acyclic and cyclic MCoFx1-5 and analogues thereof was assessed in competitive inhibition assays, as previously described in Swedberg et al. (2016) J Med Chem, 59: 7287-7292. Human β-FXIIa was obtained from Molecular Innovations, together with human FXa, human FXIa, human α-thrombin, and human plasma kallikrein. Human cationic trypsin and human plasmin were obtained from Sigma-Aldrich, and recombinant human matriptase was sourced from R&D Systems. Recombinant human urokinase (uPA) and recombinant human tissue plasminogen activator (tPA) were expressed in Expi293 cells, as previously described in Li et al. (2019) Chembiochem, 20: 46-50. FXIIa inhibition assays were performed in clear, low-binding 96-well plates using 250 μL (final volume) of assay buffer (0.1 M Tris-HCl pH 8.0, 0.1 M NaCl, 10 mM CaCl2 and 0.005% Triton X-100). Inhibitors were serially diluted and incubated with 10 nM FXIIa at room temperature to reach equilibrium. After adding 100 μM Ac-QRFR-pNA substrate (KM=162 μM), enzymatic activity was measured by monitoring release of the pNA moiety using a TECAN infinite M1000 Pro plate reader (A=405 nm, reading interval, 10 s; assay time course, 7 min). Assays were conducted in three times in duplicate. Substrate kinetic constants (Michaelis-Menten) and inhibition constants (Morrison K) were determined by non-linear regression using Prism 7 (GraphPad). Selectivity assays with off-target proteases were performed in a similar way, except that different concentrations of enzyme and substrate were used, as indicated in Table 16. For assays using a fluorescent substrate (peptide-4-methylcoumaryl-7-amide, MCA), black low-binding 96-well plates were used and activity was measured using a TECAN infinite M1000 pro plate reader (λex 360 nm, λem 460 nm, reading interval, 30 s; assay time course, 5-30 min).

Human FXa = target: T2, Human FXa (Homo sapiens, UniProt P00742); experiment: FXa inhibition assay; type: biochemical
T2 construct: Human β-FXIIa was obtained from Molecular Innovations, together with human FXa, human FXIa, human α-thrombin, and human plasma kallikrein; purchased Molecular Innovations; host or cells: purified from human plasma
T2 sequence (P00742 235-488 limits assumed): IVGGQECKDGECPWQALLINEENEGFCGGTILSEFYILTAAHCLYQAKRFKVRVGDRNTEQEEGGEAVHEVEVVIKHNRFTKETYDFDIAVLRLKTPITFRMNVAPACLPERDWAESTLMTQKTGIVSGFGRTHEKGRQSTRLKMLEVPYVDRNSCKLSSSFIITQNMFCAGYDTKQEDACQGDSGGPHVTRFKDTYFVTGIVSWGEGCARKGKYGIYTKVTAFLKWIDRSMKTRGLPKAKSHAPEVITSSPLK
T2 sequence (P00742 41-179 partner limits assumed): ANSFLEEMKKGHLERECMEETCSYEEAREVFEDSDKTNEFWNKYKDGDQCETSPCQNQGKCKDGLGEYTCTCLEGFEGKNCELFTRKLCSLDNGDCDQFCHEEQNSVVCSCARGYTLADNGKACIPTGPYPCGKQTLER
Description: as §1

Human trypsin = target: T3, Human trypsin (Homo sapiens, UniProt P07477); experiment: Trypsin competitive inhibition assay; type: biochemical
T3 construct: purchased Sigma-Aldrich; host or cells: purified from human tissue
Description: as §1

Stability in human serum = settings: human serum, 37° C., up to 24 h
Description: Briefly, peptides were incubated at a final concentration of 30 μM in human serum (human male AB serum, Sigma-Aldrich) at 37° C. for 0, 1, 12 and 24 h. The reaction was stopped at designated times, with the serum proteins being denatured by addition of two volumes of acetonitrile (v/v). The samples were then spun at 17,000 g for 10 min and the amount of peptide in the supernatant was quantified using analytical HPLC. The percentage of peptide remaining at 1, 12 and 24 h was calculated using the area of the serum-treated peptide peak from 0 h as 100%.

Rec. human matriptase = target: T4, Rec. human matriptase (Homo sapiens, UniProt Q9Y5Y6); experiment: Matriptase inhibition assay; type: biochemical
T4 construct: purchased R&D Systems
T4 sequence (Q9Y5Y6 615-855 limits assumed): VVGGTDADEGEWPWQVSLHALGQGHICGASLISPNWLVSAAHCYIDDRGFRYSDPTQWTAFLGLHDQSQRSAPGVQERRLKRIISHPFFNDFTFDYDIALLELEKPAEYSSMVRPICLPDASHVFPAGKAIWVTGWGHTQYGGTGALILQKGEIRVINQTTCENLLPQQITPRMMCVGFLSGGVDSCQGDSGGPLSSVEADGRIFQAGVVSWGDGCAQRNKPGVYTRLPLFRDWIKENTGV
Description: as §1

Human β-FXIIa = target: T5, Human β-FXIIa (Homo sapiens, UniProt P00748); experiment: FXIIa competitive inhibition assay, colorimetric substrate Ac-QRFR-pNA; type: biochemical
T5 construct: Human β-FXIIa was obtained from Molecular Innovations, together with human FXa, human FXIa, human α-thrombin, and human plasma kallikrein; purchased Molecular Innovations; host or cells: purified from human plasma
T5 sequence (P00748 373-615 limits assumed, other chains not shown): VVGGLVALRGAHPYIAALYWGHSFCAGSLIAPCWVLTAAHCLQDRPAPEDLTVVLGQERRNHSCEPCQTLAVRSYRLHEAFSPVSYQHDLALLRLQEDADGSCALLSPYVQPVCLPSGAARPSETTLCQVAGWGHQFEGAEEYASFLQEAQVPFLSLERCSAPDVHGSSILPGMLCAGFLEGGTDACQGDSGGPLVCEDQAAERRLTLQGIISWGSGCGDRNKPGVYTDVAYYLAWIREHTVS
Method in brief: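 Serially diluted inhibitors equilibrated at room temperature with 10 nM β-FXIIa in 0.1 M Tris-HCl pH 8.0, 0.1 M NaCl, 10 mM CaCl2, 0.005% Triton X-100; 100 μM Ac-QRFR-pNA (KM=162 μM), A405 over 7 min. Off-target proteases used differing enzyme/substrate levels, some with fluorogenic MCA substrates (ex 360/em 460 nm, 5-30 min). Morrison Ki by non-linear regression.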

Human FXIa = target: T6, Human FXIa (Homo sapiens, UniProt P03951); experiment: FXIa inhibition assay; type: biochemical
T6 construct: Human β-FXIIa was obtained from Molecular Innovations, together with human FXa, human FXIa, human α-thrombin, and human plasma kallikrein; purchased Molecular Innovations; host or cells: purified from human plasma
T6 sequence (P03951 388-625 limits assumed): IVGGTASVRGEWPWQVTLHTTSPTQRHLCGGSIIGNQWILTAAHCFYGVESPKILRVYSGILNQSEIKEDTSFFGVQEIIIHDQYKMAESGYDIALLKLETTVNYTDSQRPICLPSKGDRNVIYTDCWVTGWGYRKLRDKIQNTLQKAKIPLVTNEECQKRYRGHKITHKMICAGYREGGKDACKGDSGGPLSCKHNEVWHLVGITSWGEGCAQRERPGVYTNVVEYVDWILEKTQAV
T6 sequence (P03951 19-387 partner limits assumed): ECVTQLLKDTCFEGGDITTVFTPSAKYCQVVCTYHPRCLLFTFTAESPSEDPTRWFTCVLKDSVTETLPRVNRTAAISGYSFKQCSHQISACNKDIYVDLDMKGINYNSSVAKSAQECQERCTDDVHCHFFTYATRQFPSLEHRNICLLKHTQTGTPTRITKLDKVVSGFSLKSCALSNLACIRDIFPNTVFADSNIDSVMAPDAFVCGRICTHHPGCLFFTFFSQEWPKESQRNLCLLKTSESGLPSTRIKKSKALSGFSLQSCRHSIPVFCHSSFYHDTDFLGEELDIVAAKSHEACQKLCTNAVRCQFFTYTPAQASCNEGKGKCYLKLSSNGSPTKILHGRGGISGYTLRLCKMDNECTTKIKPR
Description: as §1

Rec. human tPA = target: T7, Rec. human tPA (Homo sapiens, UniProt P00750); experiment: tPA inhibition assay; type: biochemical
T7 construct: made in house; host or cells: Expi293 cells
T7 sequence (P00750 36-562): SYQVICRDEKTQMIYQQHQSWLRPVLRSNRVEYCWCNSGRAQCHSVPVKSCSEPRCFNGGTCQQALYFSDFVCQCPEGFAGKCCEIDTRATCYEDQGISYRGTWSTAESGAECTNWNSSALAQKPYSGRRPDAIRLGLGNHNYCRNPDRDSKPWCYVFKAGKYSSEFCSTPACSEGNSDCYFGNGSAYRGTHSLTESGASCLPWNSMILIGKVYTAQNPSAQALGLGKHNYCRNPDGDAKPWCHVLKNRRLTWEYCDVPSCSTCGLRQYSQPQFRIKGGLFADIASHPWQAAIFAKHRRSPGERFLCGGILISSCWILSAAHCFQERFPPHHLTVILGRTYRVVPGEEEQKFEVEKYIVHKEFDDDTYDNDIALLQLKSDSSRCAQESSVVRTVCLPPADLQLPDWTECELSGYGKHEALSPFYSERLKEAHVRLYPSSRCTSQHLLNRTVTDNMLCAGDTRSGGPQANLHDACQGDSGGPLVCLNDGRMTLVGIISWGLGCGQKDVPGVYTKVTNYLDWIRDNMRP
Description: as §1

Human thrombin = target: T8, Human thrombin (Homo sapiens, UniProt P00734); experiment: Thrombin inhibition assay; type: biochemical
T8 construct: Human β-FXIIa was obtained from Molecular Innovations, together with human FXa, human FXIa, human α-thrombin, and human plasma kallikrein; purchased Molecular Innovations; host or cells: purified from human plasma
Description: as §1

[1] = test system: clotting via the intrinsic pathway; experiment: Activated partial thromboplastin time (aPTT) assay in human plasma; type: biochemical
Text: (§2) Citrated, platelet-poor plasma samples from healthy adults were collected, prepared, and stored using previously established collection protocols, such as in Zdenek et al. (2019) Toxicol in Vitro, 58: 97-109.
(§3) Standard coagulation assays were used to determine the effect of the inhibitors on the clotting time of human plasma. Activated partial thromboplastin time (aPTT) uses a Kaolin reagent (clay) to activate the intrinsic/contact pathway of the coagulation cascade, whereas prothrombin time (PT) uses Neoplastine (lyophilized thromboplastin prepared from rabbit cerebral tissue) to activate the extrinsic/tissue-factor pathway of the coagulation cascade. A minor adjustment was made to both tests (addition of 25 μL inhibitor or buffer; refer to Table 17) to accommodate the addition of an inhibitor without changing the total volume (and therefore relative ratios of additives) of the assay. Concentrations of inhibitor are reported as the concentration at the point of incubation in the assay, i.e. not taking into account the addition of the start reagent (calcium for aPTT, or Neoplastine for PT).
(§4) Clotting time (seconds) of plasma was automatically measured using a STA-R Max® analyzer (Stago, Asnieres sur Seine, France). Measurements were conducted using a viscosity-based (mechanical) detection system, whereby opposing magnets oscillate a small metal spherical pellet inside the test cuvette (250 μL total volume) until a clot is formed. Dilution of the inhibitor in Owren-Koller (OK) buffer for dose-response curves was performed automatically by the machine. Reagents were kept at 15-19° C. in the machine during experimentation and otherwise stored at 4° C. All tests were performed in triplicate.

Rec. human uPA = target: T9, Rec. human uPA (Homo sapiens, UniProt P00749); experiment: uPA inhibition assay; type: biochemical
T9 construct: made in house; host or cells: Expi293 cells
Description: as §1

[2] = test system: clotting via the extrinsic pathway; experiment: Prothrombin time (PT) assay in human plasma; type: biochemical; settings: at 10 μM
Text: as §2, §3, §4

Human plasmin = target: T10, Human plasmin (Homo sapiens, UniProt P00747); experiment: Plasmin inhibition assay; type: biochemical
T10 construct: Human cationic trypsin and human plasmin were obtained from Sigma-Aldrich, and recombinant human matriptase was sourced from R&D Systems; purchased Sigma-Aldrich; host or cells: purified from human plasma
T10 sequence (P00747 581-810 limits assumed): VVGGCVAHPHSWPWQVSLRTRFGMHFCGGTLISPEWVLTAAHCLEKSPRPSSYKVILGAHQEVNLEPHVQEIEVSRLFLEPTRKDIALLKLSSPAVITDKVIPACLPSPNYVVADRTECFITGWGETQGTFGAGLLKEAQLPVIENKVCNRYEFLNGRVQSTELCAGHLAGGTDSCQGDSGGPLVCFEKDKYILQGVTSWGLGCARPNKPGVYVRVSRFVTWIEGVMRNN
T10 sequence (P00747 97-580 partner limits assumed): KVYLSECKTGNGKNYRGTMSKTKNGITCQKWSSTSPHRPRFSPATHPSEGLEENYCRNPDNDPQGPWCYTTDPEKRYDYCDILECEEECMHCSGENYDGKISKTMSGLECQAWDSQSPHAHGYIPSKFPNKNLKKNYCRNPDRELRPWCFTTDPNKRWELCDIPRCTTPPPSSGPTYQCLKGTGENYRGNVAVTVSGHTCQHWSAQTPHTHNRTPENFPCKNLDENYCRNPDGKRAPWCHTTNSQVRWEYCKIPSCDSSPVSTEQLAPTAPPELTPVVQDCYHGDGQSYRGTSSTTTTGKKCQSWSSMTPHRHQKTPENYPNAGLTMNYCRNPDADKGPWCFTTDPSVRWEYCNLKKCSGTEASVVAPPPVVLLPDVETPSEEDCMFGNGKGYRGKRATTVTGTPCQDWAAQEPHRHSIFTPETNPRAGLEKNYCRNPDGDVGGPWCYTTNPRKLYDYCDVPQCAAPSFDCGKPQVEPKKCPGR
Description: as §1

[3] = target: kallikrein-related peptidase 4 (KLK4) (Homo sapiens, UniProt Q9Y5K2); experiment: KLK4 competitive inhibition assay; type: biochemical
Chain of kallikrein-related peptidase 4 (KLK4) (Q9Y5K2 31-254): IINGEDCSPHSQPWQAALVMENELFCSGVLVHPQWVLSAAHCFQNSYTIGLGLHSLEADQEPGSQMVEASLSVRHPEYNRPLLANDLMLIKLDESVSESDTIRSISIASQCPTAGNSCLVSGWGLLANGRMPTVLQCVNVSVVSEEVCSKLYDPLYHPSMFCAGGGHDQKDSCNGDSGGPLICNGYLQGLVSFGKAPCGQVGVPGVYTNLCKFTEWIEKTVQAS
Description: The inhibitor variants were screened against FXIIa and three off-target proteases, trypsin, matriptase and kallikrein-related peptidase 4 (KLK4), in competitive inhibition assays using a single concentration of inhibitor that ranged from 1.25 nM (KLK4) to 25 nM (FXIIa).
The activity of acyclic and cyclic MCoFx1-5 and analogues thereof was assessed in competitive inhibition assays, as previously described in Swedberg et al. (2016) J Med Chem, 59: 7287-7292. Human β-FXIIa was obtained from Molecular Innovations, together with human FXa, human FXIa, human α-thrombin, and human plasma kallikrein. Human cationic trypsin and human plasmin were obtained from Sigma-Aldrich, and recombinant human matriptase was sourced from R&D Systems. […] After adding 100 μM Ac-QRFR-pNA substrate (KM=162 μM), enzymatic activity was measured by monitoring release of the pNA moiety using a TECAN infinite M1000 Pro plate reader (A=405 nm, reading interval, 10 s; assay time course, 7 min). […] Substrate kinetic constants (Michaelis-Menten) and inhibition constants (Morrison K) were determined by non-linear regression using Prism 7 (GraphPad). […] For assays using a fluorescent substrate (peptide-4-methylcoumaryl-7-amide, MCA), black low-binding 96-well plates were used and activity was measured using a TECAN infinite M1000 pro plate reader (λex 360 nm, λem 460 nm, reading interval, 30 s; assay time course, 5-30 min).

Compound: CC[C@H](C)[C@@H]1NC(=O)CNC(=O)CNC(=O)[C@H](CC(=O)O)NC(=O)[C@H](CO)NC(=O)CNC(=O)[C@H](CO)NC(=O)CNC(=O)[C@@H]2CSSC[C@@H]3NC(=O)[C@H](CC(=O)O)NC(=O)[C@H](CO)NC(=O)[C@H](CC(=O)O)NC(=O)[C@H](CCCNC(=N)N)NC(=O)[C@H](CCCNC(=N)N)NC(=O)[C@@H]4CSSC[C@H](NC(=O)[C@H]([C@@H](C)CC)NC(=O)[C@H](CSSC[C@H](NC1=O)C(=O)N1CCC[C@H]1C(=O)N[C@@H](CCCNC(=N)N)C(=O)N[C@@H]([C@@H](C)CC)C(=O)NCC(=O)N[C@@H](CCCNC(=N)N)C(=O)N[C@@H](CC(C)C)C(=O)N4)NC(=O)[C@H](C)NC(=O)CNC(=O)[C@@H]1CCCN1C3=O)C(=O)N[C@@H](CCCNC(=N)N)C(=O)NCC(=O)N[C@@H](CC(N)=O)C(=O)NCC(=O)N[C@@H](Cc1ccc(O)cc1)C(=O)N2 [cMCoTI-fxL1] (cyclo(ACICRGNGYCGSGSDGGICPRIGRLCRRDSDCPG); disulfide 2-19, 4-26, 10-32)
- IC50 (Human plasma kallikrein): > 5 µM
- inhibition at 5 µM (Human plasma kallikrein; read-out: percent inhibition Plasma kallikrein): 0%
- IC50 (Human FXa): > 5 µM
- inhibition at 5 µM (Human FXa; read-out: percent inhibition FXa): 0%
- Ki (Human trypsin): 996 nM
- resistance to serum proteases (in words) (Stability in human serum): highly resistant to serum proteases
- Ki (Rec. human matriptase): 2210 nM
- Ki (Human β-FXIIa): 0.69 nM
- IC50 (Human FXIa): > 5 µM
- inhibition at 5 µM (Human FXIa; read-out: percent inhibition FXIa): 1%
- IC50 (Rec. human tPA): > 5 µM
- inhibition at 5 µM (Rec. human tPA; read-out: percent inhibition tPA): 1%
- IC50 (Human thrombin): > 5 µM
- inhibition at 5 µM (Human thrombin; read-out: percent inhibition Thrombin): 1%
- EC2× (concentration required to double the clotting time) [1]: 500 nM
- IC50 (Rec. human uPA): > 5 µM
- inhibition at 5 µM (Rec. human uPA; read-out: percent inhibition uPA): 0%
- clotting time compared to control, PT assay [2]: No significant differences in clotting time compared to control assays
- IC50 (Human plasmin): > 5 µM
- inhibition at 5 µM (Human plasmin; read-out: percent inhibition Plasmin): 19%

Compound: NH2-RVCPR[4-F-Phe]EKKCRRDSDCPGACICRGNGYCG-OH (RVCPRXEKKCRRDSDCPGACICRGNGYCG; 4-F-Phe non-natural residue; MOD_RES 6 4-fluoro-L-phenylalanine) [Peptide 1]
- Ki against trypsin (in words) (Human trypsin): in the micromolar range
- fold change in activity for trypsin compared to M (Human trypsin): 7,350 fold
- Ki against matriptase (in words) (Rec. human matriptase): in the micromolar range
- fold change in activity for matriptase compared to M (Rec. human matriptase): 9,650 fold
- fold change in activity for KLK4 compared to M [3]: > 100,000 fold
- change in Ki for FXIIa compared to M (Human β-FXIIa): three-fold
- EC1.5× (concentration required to extend the clotting time by 50%) [1]: 840 nM
- EC2× (doubling the clotting time) [1]: 2.9 µM
- clotting time compared to control, PT assay [2]: No effect on clotting time

Source: patent publication US20240344241A1, “PROTEINACEOUS MOLECULES AND USES THEREFOR” (THE UNIVERSITY OF QUEENSLAND, priority 2021, published 2024)
